In assay [1] the target is T1, cysteine-substituted TMC1 constructs (Mus musculus, UniProt Q8R4P5, G411C).
T1 construct: control full-length TMC1 (TMC1_WT); expressed in transfected cells; host or cells: Tmc1-knockout mouse OHCs, injectoporation
T1 sequence (Q8R4P5 1-757 G411C): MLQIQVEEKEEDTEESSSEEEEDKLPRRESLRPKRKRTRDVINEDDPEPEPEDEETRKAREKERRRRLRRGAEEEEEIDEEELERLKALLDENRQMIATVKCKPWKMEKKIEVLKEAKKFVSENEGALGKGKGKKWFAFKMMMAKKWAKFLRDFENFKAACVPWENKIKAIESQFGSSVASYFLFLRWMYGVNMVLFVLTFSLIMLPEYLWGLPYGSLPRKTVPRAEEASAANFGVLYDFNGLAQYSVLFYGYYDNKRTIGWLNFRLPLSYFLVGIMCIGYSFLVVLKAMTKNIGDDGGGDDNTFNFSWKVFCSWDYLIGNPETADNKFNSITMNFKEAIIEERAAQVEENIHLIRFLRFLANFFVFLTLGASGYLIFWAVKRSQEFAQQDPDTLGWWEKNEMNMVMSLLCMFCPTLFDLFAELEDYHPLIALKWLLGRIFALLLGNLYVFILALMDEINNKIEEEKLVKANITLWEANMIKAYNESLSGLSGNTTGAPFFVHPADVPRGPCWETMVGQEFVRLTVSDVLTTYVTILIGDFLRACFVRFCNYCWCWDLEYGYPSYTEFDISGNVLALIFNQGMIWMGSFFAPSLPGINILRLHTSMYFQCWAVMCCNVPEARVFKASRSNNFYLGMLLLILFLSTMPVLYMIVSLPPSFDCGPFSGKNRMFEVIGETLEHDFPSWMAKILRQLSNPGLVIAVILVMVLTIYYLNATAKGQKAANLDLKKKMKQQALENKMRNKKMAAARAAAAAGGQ
The assay can be described thus: Background current before and after MTSET treatment in Tmc1-knockout OHCs expressing cysteine-substituted TMC1. Particulars: Tmc1-knockout OHCs expressing TMC1-G411C, individual cells. It counts as cell-based. How it is done: (§1) Mouse Tmc1 and Tmc2 cDNAs were cloned into CMV-Script and pCDNA3.1- vectors, respectively. To obtain the Tmc1-deafness vector and amino-acid-substituted Tmc1 constructs, specific primers were designed and used for PCR (Supplementary File 1). […] In brief, the organ of Corti was isolated from P3 mice and cut into three pieces in Dulbecco’s modified Eagle’s medium/F12 with 1.5 μg/ml ampicillin. For electroporation, a glass pipette (2 μm tip diameter) was used to deliver cDNA plasmids (0.2 μg/μl in 1 × Hanks' balanced salt solution) to hair cells in the sensory epithelium. EGFP was used as an indicator for the selection of transfected hair cells. A series of three pulses at 60 V lasting 15 ms at 1 s intervals was applied to cochlear tissues by an electroporator (ECM Gemini X2, BTX, CA). The cochlear tissues were cultured for 1 day in vitro and then used for electrophysiological recording.
(§2) All experiments were performed at room temperature (20–25°C). Briefly, the basilar membrane with hair cells was acutely dissected from neonatal mice. […] The acutely isolated or cultured basilar membrane was used for electrophysiological recording within 1 h. […] Hair cells were recorded with a patch-clamp amplifier (EPC 10 USB and Patchmaster software, HEKA Elektronik, Lambrecht/Pfalz, Germany).
(§3) The sampling rate was 1 kHz for leak current recording, 50 kHz for the IV protocol and current-clamp recording, and 100 kHz for unitary channel recording. The voltage-clamp used a –70 mV holding potential, and the current-clamp was held at 0 pA. Only recordings with a current baseline <20 pA in NMDG solution were used for statistical analysis.

Assay [2] addresses T2, cysteine-substituted TMC1 constructs (Mus musculus, UniProt Q8R4P5, M412C).
T2 construct: control full-length TMC1 (TMC1_WT); expressed in transfected cells; host or cells: Tmc1-knockout mouse OHCs, injectoporation
T2 sequence (Q8R4P5 1-757 M412C): T1 sequence (Q8R4P5 1-757 G411C) with C411G, M412C
Described as above. It counts as cell-based. As to conditions: Tmc1-knockout OHCs expressing TMC1-M412C, individual cells. How it is done: as §1, §2, §3

Where a chain is given by its changes, count along the chain named. Several values for one entry are separate records, joined by “and”; a condition that tells them apart may be missing. Identical values can stand only once.

Turning to `C[N+](C)(C)CCSS(C)(=O)=O.[Br-]` [MTSET, 2-(trimethylammonium)ethyl methanethiosulfonate, bromide], the “amplitude of the background current after MTSET treatment” value was -17.5539 and -22.5978 and -20.1413 and -23.0553 and -21.6542 in assay [1]; -35.9532 and -37.439 and -48.1972 and -25.6217 and -14.3767 and -67.9843 in assay [2].

The values above are taken from publication PMC6853638, “TMC1 is an essential component of a leak channel that modulates tonotopy and excitability of auditory hair cells in mice” (eLife, 2019).
